The structures appear in SMILES notation.

The target in one assay is T1, FGFR2 (N549H) (Homo sapiens, UniProt P21802, N549H).
T1 construct: purchased Millipore 14-742
In words: FGFR2 kinase activity assay (fluorescent ELISA). In kind it is biochemical. On the procedure: The enzymatic assays described herein are conducted according to the following procedures from commercially available reagents. In one, non limiting, example, a fluorescent ELISA assay is used to identify and characterize inhibitors of FGFR2 kinase as described herein. This heterogeneous assay utilizes a biotinylated peptide with a tyrosine motif as a substrate and an anti-phospho-tyrosine antibody to measure phosphorylation of the substrate. The reaction is initiated by adding the test compound, 37 μM Pyk2 substrate (Midwest Biotech, Cat. # MBT2383), 12.5 μM ATP (Roche, Cat. #11 140 965 001) and 0.5 μM FGFR2 enzyme (Millipore, Cat. #14-742) sequentially to a non-binding polypropylene V-well plate. All reagents are in an assay buffer consisting of: 50 mM Tris-HCL, 0.02 mg/ml BSA, 10 mM MgCl2, 0.1 mM Na3VO4, 1 mM EGTA, 75 μM ATP, 0.01% NP-40, 2 mM DTT and 10% glycerol. The reaction is incubated for 60 minutes. As the reaction proceeds, FGFR2 phosphorylates tyrosines in the peptide. The reaction mixture is then moved to a blocked streptavidin-coated Nunc Maxisorb plate (coated with 100 ng streptavidin from Pierce (Cat. #15-124) per well), allowing for the capture of the biotinylated peptide. Peptides are captured for 30 minutes at room temperature, the phosphorylation of peptides continues during this phase. The reaction is stopped by washing the streptavidin-coated plate 6 times with TBST. Phosphorylated peptide is detected by adding anti-phospho-tyrosine antibody (Cell Signaling, Cat. #9411, diluted 1:3000) to the streptavidin-coated plate. Unbound anti-phospho-tyrosine antibody is removed by washing the streptavidin-coated plate 6 times with TBST. Secondary detection is performed using alkaline phosphatase tagged goat anti-mouse antibody (Pierce, Cat. #31320, diluted 1:4000) for one hour. Unbound secondary antibody is removed by washing the streptavidin-coated plate 6 times with TBST. The fluorescent readout is initiated by adding to the streptavidin-coated plate Promega Attophos substrate (Promega, Cat. # S1000, dilution=6 mg/10 ml), which, when dephosphorylated by alkaline phosphatase, emits a fluorescent signal of 595 nm in wavelength when excited by a signal of 400 nm in wavelength. The reading of the 595 nm signal is done on the Perkin Elmer Envision system. Compounds which prevent FGFR2 from phosphorylating the peptide result in a lower fluorescent signal. The 595 nm fluorescent signal is directly proportional to the activity of FGFR2. Thus, the inhibition of FGFR2 by compounds is monitored by the decrease in the 595 nm fluorescent signal.

The target in another assay is Abl (T315I) (Homo sapiens, UniProt P00519, T315I). In words: Abl kinase activity assay (fluorescent ELISA, AblTide substrate). Format: biochemical. On the procedure: The disclosed compounds were assayed for their ability to inhibit the activity of ABL kinase. Nunc Maxisorb plates are coated with streptavidin by overnight incubation with 100 μL per well of 1 μg/mL streptavidin in DPBS. Prior to the start of the experiment, the plates are washed with TBST (3×200 μL) and blocked for at least 3 hours by adding 150 μL of 5% BSA/TBST. The plates are washed with TBST (3×200 μL/well) and left dry immediately before the capture step.
The test articles and controls (Gleevec) are prepared using the following assay buffer @ 10× desired final concentration (50 mM Tris pH 7.0, 0.02 mg/ml BSA, 10 mM MgCl2, 0.1 mM Na3VO4, 1 mM EGTA, 0.01% NP-40, 1 mM DTT in 10% glycerol/water). In a reaction plate are added rapidly 5 μL test article (or control) and 30 μL ABL or ABL T315I (0.089 nM final concentration, in the above buffer). The plate is incubated for 20 minutes. To the reaction plate is added ATP (100 μM final concentration) and AblTide (128 nM final concentration) in a volume of 15 μL. The plate is incubated at room temperature for one hour.
From the reaction plate, 40 μL is transferred to the streptavidin coated plate. The capture plate is incubated at room temperature for 30 minutes then washed 3× with TBST. To the capture plate is added 100 μL/well of Cell Signaling anti-phospho tyrosine at a dilution of 1:3000 in 2% BSA/TBST. The plate is incubated for two hours at room temperature then washed 3× with TBST. To the capture plate is added 100 μL/well of Alkaline Phosphatase Tagged Goat anti Mouse Antibody at a dilution of 1:4000 in 2% BSA/TBST. The plate is incubated for one hour at room temperature then washed 3× with TBST.
The fluorescent readout was initiated by the addition of 100 μL/well of Attophos reagent (6 mg/10 mL). The reading was done on the Perkin Elmer Envision system.

A further assay concerns MDA-MB-231. In words: MTS assay, MDA-MB-231. In kind it is cell-based. Particulars: Homo sapiens, MDA-MB-231, 72 h. On the procedure:
(§1) Cells were maintained at 37° C., 5% CO2 in RPMI media supplemented with 1% fetal bovine serum, penicillin/streptomycin and fungizone (Invitrogen). Cells were seeded into 96-well tissue culture plates at 3000 per well and cultured at 37° C. for 18 h. Test compounds were dissolved and diluted to 300× in DMSO then diluted 1:40 in DMEM. Cells were incubated with test compounds for 72 hours followed by incubation with tetrazolium compound (3-(4,5-dimethylthiazol-2-yl)-5-(3-carboxymethoxyphenyl)-2-(4-sulfophenyl)-2H-tetrazolium, inner salt; MTS) and the electron coupling reagent, phenazine methosulfate (PMS) for 4 hours. […] The ability of compounds to inhibit cell growth in this assay is correlated with the reduction of dehydrogenase enzyme activity found in metabolically active cells. The measurement of the absorbance of the formazan was assessed using an ENVISION™ (Perkin Elmer) microplate reader at 492 nm. The calculated IC50 value is the concentration of the test compound that causes a 50% decrease in the absorbance.

The next assay concerns DLD-1. Nature of the assay: MTS assay, DLD-1. In kind it is cell-based. Particulars: Homo sapiens, DLD-1, 72 h. The procedure:
as §1

T1 sequence (P21802 22-821 N549H): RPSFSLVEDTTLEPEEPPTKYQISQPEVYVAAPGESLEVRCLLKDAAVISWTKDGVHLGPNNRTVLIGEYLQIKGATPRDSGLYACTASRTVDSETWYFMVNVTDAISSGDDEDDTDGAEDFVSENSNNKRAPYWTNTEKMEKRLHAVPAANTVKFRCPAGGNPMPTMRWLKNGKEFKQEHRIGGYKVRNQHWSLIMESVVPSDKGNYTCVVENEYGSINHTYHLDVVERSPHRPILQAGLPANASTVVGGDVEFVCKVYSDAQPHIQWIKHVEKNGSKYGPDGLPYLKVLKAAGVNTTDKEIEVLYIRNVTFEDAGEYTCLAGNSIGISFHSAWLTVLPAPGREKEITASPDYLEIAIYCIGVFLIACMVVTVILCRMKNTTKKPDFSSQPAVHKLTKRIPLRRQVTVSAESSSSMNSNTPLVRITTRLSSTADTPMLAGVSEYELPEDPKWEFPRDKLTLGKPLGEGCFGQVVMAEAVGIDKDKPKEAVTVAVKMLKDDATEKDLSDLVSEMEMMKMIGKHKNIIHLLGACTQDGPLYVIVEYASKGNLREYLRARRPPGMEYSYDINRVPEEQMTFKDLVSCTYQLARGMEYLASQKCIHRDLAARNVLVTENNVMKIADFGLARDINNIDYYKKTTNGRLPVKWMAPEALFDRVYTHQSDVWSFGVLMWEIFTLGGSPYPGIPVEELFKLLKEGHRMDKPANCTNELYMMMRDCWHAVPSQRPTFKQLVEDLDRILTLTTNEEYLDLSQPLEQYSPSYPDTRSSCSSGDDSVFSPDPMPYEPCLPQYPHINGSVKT

On FGFR2 (N549H), `O=c1[nH][nH]c(-c2cn3c4c(cccc24)CCC3)c1-c1c[nH]c2ccccc12` [Compound 4, 5-(5,6-dihydro-4H-pyrrolo[3,2,1-ij]quinolin-1-yl)-4-(1H-indol-3-yl)-1,2-dihydro-3H-pyrazol-3-one] registered an inhibition at 30 µM of 96%. This compound yielded an inhibition at 10 µM at Abl (T315I) of 63%.

With `O=c1[nH][nH]c(-c2ccccc2Cl)c1-c1cn2c3c(cccc13)CCC2` [Compound 15, 5-(2-chlorophenyl)-4-(5,6-dihydro-4H-pyrrolo[3,2,1-ij]quinolin-1-yl)-1,2-dihydro-3H-pyrazol-3-one], the inhibition at 30 µM at FGFR2 (N549H) came to 33%. On Abl (T315I), this compound gave an inhibition at 10 µM of 20%.

The compound `O=c1[nH][nH]c(C2CCCC2)c1-c1cn2c3c(cccc13)CCC2` [Compound 19, 5-cyclopentyl-4-(5,6-dihydro-4H-pyrrolo[3,2,1-ij]quinolin-1-yl)-1,2-dihydro-3H-pyrazol-3-one] displayed an inhibition at 10 µM at Abl (T315I) of 77%.

In turn, `O=c1[nH][nH]c(-c2ccccc2Br)c1-c1cn2c3c(cccc13)CCC2` [Compound 20, 5-(2-bromophenyl)-4-(5,6-dihydro-4H-pyrrolo[3,2,1-ij]quinolin-1-yl)-1,2-dihydro-3H-pyrazol-3-one] gave an inhibition at 30 µM against FGFR2 (N549H) of 45%. In addition, 10 µM produced 87% inhibition against Abl (T315I).

`O=c1[nH][nH]c(-c2cccc(F)c2)c1-c1cn2c3c(cccc13)CCC2` [Compound 21, 4-(5,6-dihydro-4H-pyrrolo[3,2,1-ij]quinolin-1-yl)-5-(3-fluorophenyl)-1,2-dihydro-3H-pyrazol-3-one] showed an inhibition at 30 µM at FGFR2 (N549H) of 75%. In addition, the inhibition at 10 µM against Abl (T315I) was found to be 79%.

Take `CC(C)c1[nH][nH]c(=O)c1-c1cn2c3c(cccc13)CCC2` [Compound 23, 4-(5,6-dihydro-4H-pyrrolo[3,2,1-ij]quinolin-1-yl)-5-isopropyl-1,2-dihydro-3H-pyrazol-3-one]: the inhibition at 10 µM against Abl (T315I) came out at 8%.

In the case of `O=C(Nc1cccc(Cl)c1)N1CCC(CNc2nccc(-c3cn4c5c(cccc35)CCC4)n2)CC1` [Compound 49, N-(3-chlorophenyl)-4-((4-(5,6-dihydro-4H-pyrrolo[3,2,1-ij]quinolin-1-yl)pyrimidin-2-ylamino)methyl)piperidine-1-carboxamide], at 30 µM the inhibition at FGFR2 (N549H) was 58%. Moreover, the inhibition at 10 µM in the assay with MDA-MB-231 stood at 85%; with DLD-1, 96%.

`O=C(Nc1ccccc1OC(F)F)N1CCC(CNc2nccc(-c3cn4c5c(cccc35)CCC4)n2)CC1` [Compound 50, N-(2-(difluoromethoxy)phenyl)-4-((4-(5,6-dihydro-4H-pyrrolo[3,2,1-ij]quinolin-1-yl)pyrimidin-2-ylamino)methyl)piperidine-1-carboxamide]: at 30 µM the inhibition against FGFR2 (N549H) was 55%. Also, the figures for the inhibition at 10 µM with MDA-MB-231 and in the assay on DLD-1 were 53% and 55%, respectively.

In the case of `CC(=O)c1ccccc1NC(=O)N1CCC(CNc2nccc(-c3cn4c5c(cccc35)CCC4)n2)CC1` [Compound 51, N-(2-acetylphenyl)-4-((4-(5,6-dihydro-4H-pyrrolo[3,2,1-ij]quinolin-1-yl)pyrimidin-2-ylamino)methyl)piperidine-1-carboxamide], the inhibition at 30 µM against FGFR2 (N549H) is 52%. The inhibition at 10 µM was 72% in the assay with MDA-MB-231 and 97% in the assay on DLD-1.

The compound `COc1ccc(NC(=O)N2CCC(CNc3nccc(-c4cn5c6c(cccc46)CCC5)n3)CC2)c(OC)c1` [Compound 53, 4-((4-(5,6-dihydro-4H-pyrrolo[3,2,1-ij]quinolin-1-yl)pyrimidin-2-ylamino)methyl)-N-(2,4-dimethoxyphenyl)piperidine-1-carboxamide] returned an inhibition at 30 µM against FGFR2 (N549H) of 48%. Moreover, the inhibition at 10 µM in the assay on MDA-MB-231 worked out at 95%; with DLD-1, 98%.

`COc1ccccc1C(=O)N1CCC(CNc2nccc(-c3cn4c5c(cccc35)CCC4)n2)CC1` [Compound 54, (4-((4-(5,6-dihydro-4H-pyrrolo[3,2,1-ij]quinolin-1-yl)pyrimidin-2-ylamino)methyl)piperidin-1-yl)(2-methoxyphenyl)methanone]: at FGFR2 (N549H), the inhibition at 30 µM was determined as 46%. The inhibition at 10 µM is 37% with MDA-MB-231 and 95% in the assay with DLD-1.
